Molecular target: T1, Sphingosine kinase 2 (Homo sapiens, UniProt Q9NRA0)
T1 sequence (Q9NRA0 whole entry): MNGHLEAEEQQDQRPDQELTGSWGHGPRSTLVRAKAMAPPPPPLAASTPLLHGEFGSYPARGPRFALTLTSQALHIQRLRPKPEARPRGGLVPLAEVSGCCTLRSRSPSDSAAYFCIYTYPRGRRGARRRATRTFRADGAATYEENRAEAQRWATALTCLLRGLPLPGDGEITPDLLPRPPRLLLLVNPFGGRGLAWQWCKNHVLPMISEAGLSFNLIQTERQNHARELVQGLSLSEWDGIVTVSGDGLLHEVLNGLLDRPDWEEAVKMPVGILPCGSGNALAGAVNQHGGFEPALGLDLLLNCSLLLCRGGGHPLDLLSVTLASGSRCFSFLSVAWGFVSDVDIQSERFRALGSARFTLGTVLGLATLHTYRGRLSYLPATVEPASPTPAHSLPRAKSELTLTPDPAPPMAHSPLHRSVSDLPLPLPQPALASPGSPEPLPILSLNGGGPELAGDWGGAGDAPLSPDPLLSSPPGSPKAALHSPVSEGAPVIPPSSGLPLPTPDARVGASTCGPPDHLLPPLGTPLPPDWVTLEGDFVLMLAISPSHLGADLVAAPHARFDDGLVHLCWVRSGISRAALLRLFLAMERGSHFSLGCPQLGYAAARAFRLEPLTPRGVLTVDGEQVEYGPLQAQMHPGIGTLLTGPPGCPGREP

IC50 [µM]	SMILES
> 10	Cc1cc(CS(=O)(=O)c2ccccc2)cc(OCCCCCCCN2CCC[C@@H]2CO)c1
> 10	O=S(=O)(Cc1cc(OCc2ccc(CN3CCC[C@@H]3CO)cc2)cc(C(F)(F)F)c1)c1ccccc1
> 10	Cc1cc(CS(=O)(=O)c2ccccc2)cc(OCc2ccc(CN3CCCCC3CO)cc2)c1 (centres undefined)
> 10	Cc1cc(CS(=O)(=O)c2ccccc2)cc(OCc2ccc(CN(C)CCO)cc2)c1

— ChEMBL document CHEMBL5154877, “Novel Sphingosine Kinase 1 Inhibitor Suppresses Growth of Solid Tumor and Inhibits the Lung Metastasis of Triple-Negative Breast Cancer” (J Med Chem, 2022)
